Results published in patent US11572369B2, “Bicyclic pyridine compositions and methods of using the same for cancer therapy” (UNIVERSITY OF SOUTH CAROLINA, priority 2019, dated 2023).

Legend:
Assay in all cases: KINOMEscan
Format in all cases: binding
Conditions in all cases: 2000 nM
ERK8 = biological target: T1, ERK8 (Homo sapiens, UniProt Q8TD08)
T1 construct: DNA label (qPCR read-out); purchased DiscoveRx (KINOMEscan ScanMAX panel)

DRAK1 = biological target: T2, DRAK1 (Homo sapiens, UniProt Q9UEE5)
T2 construct: DNA label (qPCR read-out); purchased KINOMEscan (DiscoveRx) panel

KIT(V559D, T670I) = biological target: T3, KIT(V559D, T670I) (Homo sapiens, UniProt P10721, T670I/V559D)
T3 construct: purchased KINOMEscan (DiscoveRx) panel service
T3 sequence (P10721 26-976 V559D/T670I): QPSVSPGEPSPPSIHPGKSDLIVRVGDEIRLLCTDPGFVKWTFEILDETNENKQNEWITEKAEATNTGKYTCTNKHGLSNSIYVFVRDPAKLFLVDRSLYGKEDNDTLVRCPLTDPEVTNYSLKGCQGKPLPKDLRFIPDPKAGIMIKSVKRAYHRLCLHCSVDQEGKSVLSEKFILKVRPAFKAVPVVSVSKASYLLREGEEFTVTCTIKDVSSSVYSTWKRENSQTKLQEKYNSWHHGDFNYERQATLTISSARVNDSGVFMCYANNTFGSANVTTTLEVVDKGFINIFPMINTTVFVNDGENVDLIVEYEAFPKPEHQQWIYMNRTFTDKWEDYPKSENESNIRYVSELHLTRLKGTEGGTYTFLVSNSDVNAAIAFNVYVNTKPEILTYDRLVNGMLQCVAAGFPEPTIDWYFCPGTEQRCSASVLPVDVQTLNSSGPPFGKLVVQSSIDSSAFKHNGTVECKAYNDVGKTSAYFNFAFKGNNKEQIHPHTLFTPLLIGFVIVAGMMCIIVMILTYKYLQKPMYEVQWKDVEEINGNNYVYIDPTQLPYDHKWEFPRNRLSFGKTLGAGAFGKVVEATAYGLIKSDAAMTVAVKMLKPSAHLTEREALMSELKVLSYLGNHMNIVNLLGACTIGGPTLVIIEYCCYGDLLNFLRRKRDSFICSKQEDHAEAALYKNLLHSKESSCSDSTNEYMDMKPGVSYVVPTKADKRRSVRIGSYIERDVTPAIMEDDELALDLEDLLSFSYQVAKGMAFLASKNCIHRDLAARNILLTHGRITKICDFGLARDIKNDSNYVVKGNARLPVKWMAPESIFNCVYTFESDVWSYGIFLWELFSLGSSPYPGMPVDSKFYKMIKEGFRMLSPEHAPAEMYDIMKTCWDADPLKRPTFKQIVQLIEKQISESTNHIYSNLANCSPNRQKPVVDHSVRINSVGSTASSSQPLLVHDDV

CDK5 = biological target: T4, CDK5 (Homo sapiens, UniProt Q00535)
T4 construct: purchased DiscoverX (KINOMEscan service)

CDK4-cyclinD3 = biological target: T5, CDK4-cyclinD3 (Homo sapiens, UniProt P11802)
T5 construct: purchased DiscoverX (KINOMEscan service)
T5 sequence (P11802 whole entry): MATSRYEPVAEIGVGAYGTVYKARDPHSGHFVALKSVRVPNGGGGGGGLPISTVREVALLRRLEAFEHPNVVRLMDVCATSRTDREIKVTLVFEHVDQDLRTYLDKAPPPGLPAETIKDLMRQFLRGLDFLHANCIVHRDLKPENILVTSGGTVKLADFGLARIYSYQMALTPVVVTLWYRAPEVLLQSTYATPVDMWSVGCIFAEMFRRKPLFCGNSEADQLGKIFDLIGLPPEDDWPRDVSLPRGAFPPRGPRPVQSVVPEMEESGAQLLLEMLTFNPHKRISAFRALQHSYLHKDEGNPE
T5 sequence (P30281 whole entry partner): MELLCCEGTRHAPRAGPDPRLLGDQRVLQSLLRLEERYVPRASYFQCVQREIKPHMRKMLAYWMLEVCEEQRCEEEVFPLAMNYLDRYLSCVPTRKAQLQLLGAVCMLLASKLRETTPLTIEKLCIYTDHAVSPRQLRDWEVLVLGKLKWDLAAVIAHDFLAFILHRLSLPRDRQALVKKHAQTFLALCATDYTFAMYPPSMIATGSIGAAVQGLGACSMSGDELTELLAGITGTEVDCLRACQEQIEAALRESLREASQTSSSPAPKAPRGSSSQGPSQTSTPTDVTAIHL

CLK4 = biological target: T6, CLK4 (Homo sapiens, UniProt Q9HAZ1)
T6 construct: DNA label (for qPCR read-out); purchased DiscoveRx (KINOMEscan scanMAX service)

EPHA6 = biological target: T7, EPHA6 (Homo sapiens, UniProt Q9UF33)
T7 construct: purchased DiscoveRx (KINOMEscan scanMAX panel)

CSNK2A2 = biological target: T8, CSNK2A2 (Homo sapiens, UniProt P19784)
T8 construct: DNA label; purchased DiscoveRx (KINOMEscan scanMAX panel)

TBK1 = biological target: T9, TBK1 (Homo sapiens, UniProt Q9UHD2)
T9 construct: DNA label (for qPCR read-out); purchased DiscoveRx (KINOMEscan scanMAX panel, contract assay)

PAK2 = biological target: T10, PAK2 (Homo sapiens, UniProt Q13177)
T10 construct: purchased DiscoverX (KINOMEscan service)

DCAMKL1 = biological target: T11, DCAMKL1 (Homo sapiens, UniProt O15075)
T11 construct: DNA label (qPCR read-out); purchased KINOMEscan (DiscoveRx) panel
T11 sequence (O15075 whole entry): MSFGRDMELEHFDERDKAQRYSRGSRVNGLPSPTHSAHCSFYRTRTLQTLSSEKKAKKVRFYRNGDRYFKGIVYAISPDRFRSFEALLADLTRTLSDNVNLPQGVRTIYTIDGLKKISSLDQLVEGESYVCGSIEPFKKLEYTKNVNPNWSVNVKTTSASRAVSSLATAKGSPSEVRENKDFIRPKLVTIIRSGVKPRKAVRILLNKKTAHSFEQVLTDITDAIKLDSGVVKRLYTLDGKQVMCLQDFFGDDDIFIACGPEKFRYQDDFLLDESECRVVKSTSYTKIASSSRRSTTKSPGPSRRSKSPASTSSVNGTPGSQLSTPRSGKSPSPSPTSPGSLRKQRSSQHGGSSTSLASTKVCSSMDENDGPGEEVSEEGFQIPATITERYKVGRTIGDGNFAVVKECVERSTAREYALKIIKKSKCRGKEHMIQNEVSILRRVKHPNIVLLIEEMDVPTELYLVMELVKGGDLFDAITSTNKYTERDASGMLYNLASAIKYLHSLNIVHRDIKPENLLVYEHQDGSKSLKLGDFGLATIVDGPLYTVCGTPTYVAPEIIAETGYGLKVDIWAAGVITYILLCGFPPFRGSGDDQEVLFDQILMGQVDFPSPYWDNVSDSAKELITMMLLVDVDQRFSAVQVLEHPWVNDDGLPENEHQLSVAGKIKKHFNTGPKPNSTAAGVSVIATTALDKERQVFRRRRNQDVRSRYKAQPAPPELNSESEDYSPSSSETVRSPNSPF

BRAF(V600E) = biological target: T12, BRAF(V600E) (Homo sapiens, UniProt P15056, V600E)
T12 construct: DNA label (for qPCR read-out); purchased KINOMEscan scanMAX panel (DiscoveRx)

SIK2 = biological target: T13, SIK2 (Homo sapiens, UniProt Q9H0K1)
T13 construct: purchased KINOMEscan (DiscoveRx)

GSK3A = biological target: T14, GSK3A (Homo sapiens, UniProt P49840)
T14 construct: DNA label (qPCR read-out); purchased DiscoverX (assay service)
T14 sequence (P49840 whole entry): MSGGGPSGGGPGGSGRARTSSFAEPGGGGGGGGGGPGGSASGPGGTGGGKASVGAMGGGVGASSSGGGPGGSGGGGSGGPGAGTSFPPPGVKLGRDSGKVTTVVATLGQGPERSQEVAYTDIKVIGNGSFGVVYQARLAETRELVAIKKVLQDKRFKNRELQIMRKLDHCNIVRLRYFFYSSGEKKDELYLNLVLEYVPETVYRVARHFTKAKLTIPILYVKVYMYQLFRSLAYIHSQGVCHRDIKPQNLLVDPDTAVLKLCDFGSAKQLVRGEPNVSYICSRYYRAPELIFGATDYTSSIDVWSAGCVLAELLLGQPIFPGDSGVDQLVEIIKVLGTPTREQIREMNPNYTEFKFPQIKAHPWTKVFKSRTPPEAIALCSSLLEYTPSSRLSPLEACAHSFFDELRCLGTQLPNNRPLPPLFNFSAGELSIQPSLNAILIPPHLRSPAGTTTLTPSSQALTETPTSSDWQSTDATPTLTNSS

MAP4K4 = MAP4K4 (Homo sapiens, UniProt O95819)
LIMK1 = biological target: T15, LIMK1 (Homo sapiens, UniProt P53667)
T15 construct: purchased KINOMEscan (DiscoveRx) panel service
T15 sequence (P53667 whole entry): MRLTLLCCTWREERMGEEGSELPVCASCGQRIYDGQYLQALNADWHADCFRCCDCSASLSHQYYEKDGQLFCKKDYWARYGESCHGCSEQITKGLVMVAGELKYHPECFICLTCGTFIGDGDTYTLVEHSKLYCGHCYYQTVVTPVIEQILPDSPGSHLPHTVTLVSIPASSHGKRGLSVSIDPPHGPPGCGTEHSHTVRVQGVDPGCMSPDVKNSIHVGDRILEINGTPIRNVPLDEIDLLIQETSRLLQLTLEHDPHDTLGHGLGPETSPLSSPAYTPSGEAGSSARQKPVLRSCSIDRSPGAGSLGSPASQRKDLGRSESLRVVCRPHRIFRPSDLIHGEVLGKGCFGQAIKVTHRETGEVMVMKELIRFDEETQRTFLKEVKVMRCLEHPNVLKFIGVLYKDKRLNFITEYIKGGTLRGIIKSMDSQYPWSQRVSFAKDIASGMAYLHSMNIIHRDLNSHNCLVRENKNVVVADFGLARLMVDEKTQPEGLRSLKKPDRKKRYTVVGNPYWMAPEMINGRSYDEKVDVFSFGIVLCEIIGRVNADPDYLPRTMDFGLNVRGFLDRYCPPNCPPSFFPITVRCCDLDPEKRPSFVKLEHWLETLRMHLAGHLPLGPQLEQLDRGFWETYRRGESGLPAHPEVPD

RIOK2 = biological target: T16, RIOK2 (Homo sapiens, UniProt Q9BVS4)
T16 construct: DNA label (qPCR read-out); purchased DiscoverX (assay service)
T16 sequence (Q9BVS4 whole entry): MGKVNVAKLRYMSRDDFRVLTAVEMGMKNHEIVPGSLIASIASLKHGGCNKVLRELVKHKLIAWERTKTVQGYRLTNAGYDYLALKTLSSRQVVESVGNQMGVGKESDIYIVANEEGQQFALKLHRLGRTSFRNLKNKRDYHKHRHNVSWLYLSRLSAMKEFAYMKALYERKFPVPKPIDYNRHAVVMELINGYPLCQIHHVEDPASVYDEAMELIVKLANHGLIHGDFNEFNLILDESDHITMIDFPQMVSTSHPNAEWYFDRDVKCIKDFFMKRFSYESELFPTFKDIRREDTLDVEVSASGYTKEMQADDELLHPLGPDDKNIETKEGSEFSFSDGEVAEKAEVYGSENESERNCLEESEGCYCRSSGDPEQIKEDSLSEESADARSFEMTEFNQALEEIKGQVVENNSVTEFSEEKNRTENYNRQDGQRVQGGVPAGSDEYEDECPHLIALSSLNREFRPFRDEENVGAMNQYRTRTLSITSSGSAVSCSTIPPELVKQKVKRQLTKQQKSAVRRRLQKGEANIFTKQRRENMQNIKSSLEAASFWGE

MEK5 = biological target: T17, MEK5 (Homo sapiens, UniProt Q13163)
T17 construct: purchased DiscoveRx (KINOMEscan scanMAX panel, service)

NEK5 = biological target: T18, NEK5 (Homo sapiens, UniProt Q6P3R8)
T18 construct: DNA label (qPCR read-out); purchased KINOMEscan (ScanMAX panel service)

RIOK3 = biological target: T19, RIOK3 (Homo sapiens, UniProt O14730)
T19 construct: DNA label (qPCR read-out); purchased DiscoveRx (KINOMEscan ScanMAX panel)

FGR = biological target: T20, FGR (Homo sapiens, UniProt P09769)
T20 construct: purchased DiscoveRx (KINOMEscan scanMAX panel)
T20 sequence (P09769 whole entry): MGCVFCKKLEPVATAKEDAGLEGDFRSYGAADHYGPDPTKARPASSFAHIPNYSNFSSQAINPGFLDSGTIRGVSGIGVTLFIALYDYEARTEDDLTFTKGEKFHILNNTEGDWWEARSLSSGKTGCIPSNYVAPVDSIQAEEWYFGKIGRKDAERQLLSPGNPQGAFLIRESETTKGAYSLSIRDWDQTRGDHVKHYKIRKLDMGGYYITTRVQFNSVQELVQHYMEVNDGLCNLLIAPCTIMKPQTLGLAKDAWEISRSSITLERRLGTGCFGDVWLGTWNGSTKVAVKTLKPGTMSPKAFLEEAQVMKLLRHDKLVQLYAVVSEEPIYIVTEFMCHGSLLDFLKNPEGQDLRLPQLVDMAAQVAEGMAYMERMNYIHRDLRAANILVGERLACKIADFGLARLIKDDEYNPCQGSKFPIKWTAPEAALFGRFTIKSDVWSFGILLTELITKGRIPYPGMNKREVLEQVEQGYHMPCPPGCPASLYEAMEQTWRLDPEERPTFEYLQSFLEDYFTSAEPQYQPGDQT

RET(M918T) = biological target: T21, RET(M918T) (Homo sapiens, UniProt P07949, M918T)
T21 construct: purchased DiscoveRx (KINOMEscan scanMAX panel)

PRKCQ = biological target: T22, PRKCQ (Homo sapiens, UniProt Q04759)
T22 construct: purchased DiscoveRx (KINOMEscan scanMAX panel)

ACVR2B = biological target: T23, ACVR2B (Homo sapiens, UniProt Q13705)
T23 construct: purchased DiscoveRx (KINOMEscan scanMAX panel, service)

ERK1 = biological target: T24, ERK1 (Homo sapiens, UniProt P27361)
T24 construct: DNA label (qPCR read-out); purchased DiscoveRx (KINOMEscan ScanMAX panel)
T24 sequence (P27361 whole entry): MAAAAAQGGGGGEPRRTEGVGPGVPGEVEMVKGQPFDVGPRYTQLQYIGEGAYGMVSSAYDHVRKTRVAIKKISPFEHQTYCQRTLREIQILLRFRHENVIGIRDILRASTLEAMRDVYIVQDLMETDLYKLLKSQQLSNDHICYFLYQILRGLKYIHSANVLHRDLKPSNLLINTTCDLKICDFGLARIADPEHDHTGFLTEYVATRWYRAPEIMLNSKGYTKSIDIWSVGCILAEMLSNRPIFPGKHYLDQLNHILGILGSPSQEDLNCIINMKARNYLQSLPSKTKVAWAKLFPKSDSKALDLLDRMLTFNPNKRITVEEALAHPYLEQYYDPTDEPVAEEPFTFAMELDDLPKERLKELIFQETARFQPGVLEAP

EPHB6 = biological target: T25, EPHB6 (Homo sapiens, UniProt O15197)
T25 construct: DNA label (qPCR read-out); purchased DiscoveRx (KINOMEscan ScanMAX panel)

BMPR1A = biological target: T26, BMPR1A (Homo sapiens, UniProt P36894)
T26 construct: DNA label (for qPCR read-out); purchased KINOMEscan scanMAX panel (DiscoveRx)

EPHB2 = biological target: T27, EPHB2 (Homo sapiens, UniProt P29323)
T27 construct: purchased DiscoveRx (KINOMEscan scanMAX panel)

MTOR = biological target: T28, MTOR (Homo sapiens, UniProt P42345)
T28 construct: DNA label (for qPCR read-out); purchased KINOMEscan scanMAX panel (DiscoveRx)

EPHB3 = biological target: T29, EPHB3 (Homo sapiens, UniProt P54753)
T29 construct: purchased DiscoveRx (KINOMEscan scanMAX panel)

EPHA4 = biological target: T30, EPHA4 (Homo sapiens, UniProt P54764)
T30 construct: purchased DiscoveRx (KINOMEscan scanMAX panel)

MET(Y1235D) = biological target: T31, MET(Y1235D) (Homo sapiens, UniProt P08581, Y1235D)
T31 construct: purchased DiscoveRx (KINOMEscan scanMAX panel, service)

PIM3 = biological target: T32, PIM3 (Homo sapiens, UniProt Q86V86)
T32 construct: DNA label (qPCR read-out); purchased KINOMEscan (DiscoveRx) panel

EPHB1 = biological target: T33, EPHB1 (Homo sapiens, UniProt P54762)
T33 construct: purchased DiscoveRx (KINOMEscan scanMAX panel)

YANK3 = biological target: T34, YANK3 (Homo sapiens, UniProt Q86UX6)
T34 construct: purchased KINOMEscan (DiscoveRx) panel service

AKT2 = biological target: T35, AKT2 (Homo sapiens, UniProt P31751)
T35 construct: purchased DiscoveRx (KINOMEscan scanMAX panel, service)

| SMILES | % Ctrl (ERK8) | % Ctrl (DRAK1) | % Ctrl (KIT(V559D, T670I)) | % Ctrl (CDK5) | % Ctrl (CDK4-cyclinD3) | % Ctrl (CLK4) | % Ctrl (EPHA6) | % Ctrl (CSNK2A2) | % Ctrl (TBK1) | % Ctrl (PAK2) | % Ctrl (DCAMKL1) | % Ctrl (BRAF(V600E)) | % Ctrl (SIK2) | % Ctrl (GSK3A) | % Ctrl (MAP4K4) | % Ctrl (LIMK1) | % Ctrl (RIOK2) | % Ctrl (MEK5) | % Ctrl (NEK5) | % Ctrl (RIOK3) | also measured |
| --- | --- | --- | --- | --- | --- | --- | --- | --- | --- | --- | --- | --- | --- | --- | --- | --- | --- | --- | --- | --- | --- |
| [2H]C([2H])([2H])N(C(=O)c1ccc(N2CCCN(c3ccnc4sc(C(N)=O)c(N)c34)CC2)cc1)C([2H])([2H])[2H] [15u_D6, 3-amino-4-(4-(4-(bis(methyl-d3)carbamoyl)phenyl)-1,4-diazepan-1-yl)thieno[2,3-b]pyridine-2-carboxamide] | 99 % Ctrl | 100 % Ctrl | 96 % Ctrl | 94 % Ctrl | 97 % Ctrl | 66 % Ctrl | 100 % Ctrl | 100 % Ctrl | 97 % Ctrl | 94 % Ctrl | 89 % Ctrl | 84 % Ctrl | 100 % Ctrl | 34 % Ctrl | 93 % Ctrl | 100 % Ctrl | 3.9 % Ctrl | 65 % Ctrl | 100 % Ctrl | 95 % Ctrl | % Ctrl (FGR): 100 % Ctrl; % Ctrl (RET(M918T)): 98 % Ctrl; % Ctrl (PRKCQ): 87 % Ctrl; % Ctrl (ACVR2B): 86 % Ctrl; % Ctrl (ERK1): 97 % Ctrl; % Ctrl (EPHB6): 89 % Ctrl; % Ctrl (BMPR1A): 100 % Ctrl; % Ctrl (EPHB2): 95 % Ctrl; % Ctrl (MTOR): 97 % Ctrl; % Ctrl (EPHB3): 94 % Ctrl; % Ctrl (EPHA4): 100 % Ctrl; % Ctrl (MET(Y1235D)): 100 % Ctrl; % Ctrl (PIM3): 98 % Ctrl; % Ctrl (EPHB1): 88 % Ctrl; % Ctrl (YANK3): 97 % Ctrl; % Ctrl (AKT2): 99 % Ctrl |
| CN(C)C(=O)c1ccc(N2CCCN(c3ccnc4sc(C(N)=O)c(N)c34)CC2)cc1 [15u, 3-amino-4-(4-(4-(dimethylcarbamoyl)phenyl)-1,4-diazepan-1-yl)thieno[2,3-b]pyridine-2-carboxamide] | 98 % Ctrl | 100 % Ctrl | 100 % Ctrl | 84 % Ctrl | 95 % Ctrl | 59 % Ctrl | 100 % Ctrl | 92 % Ctrl | 99 % Ctrl | 91 % Ctrl | 100 % Ctrl | 100 % Ctrl | 96 % Ctrl | 31 % Ctrl | 100 % Ctrl | 100 % Ctrl | 35 % Ctrl | 86 % Ctrl | 94 % Ctrl | 100 % Ctrl | % Ctrl (FGR): 100 % Ctrl; % Ctrl (RET(M918T)): 98 % Ctrl; % Ctrl (PRKCQ): 90 % Ctrl; % Ctrl (ACVR2B): 100 % Ctrl; % Ctrl (ERK1): 100 % Ctrl; % Ctrl (EPHB6): 95 % Ctrl; % Ctrl (BMPR1A): 100 % Ctrl; % Ctrl (EPHB2): 99 % Ctrl; % Ctrl (MTOR): 88 % Ctrl; % Ctrl (EPHB3): 96 % Ctrl; % Ctrl (EPHA4): 100 % Ctrl; % Ctrl (MET(Y1235D)): 100 % Ctrl; % Ctrl (PIM3): 89 % Ctrl; % Ctrl (EPHB1): 88 % Ctrl; % Ctrl (YANK3): 81 % Ctrl; % Ctrl (AKT2): 86 % Ctrl |
